Data published in publication PMC5218480 (PLoS ONE, 2017).

System: MV-4-11 cells
Assay: Gene expression microarray analysis (Affymetrix PrimeView) and GSEA
Format: cell-based, human
Design: RFU PODN (11730768_x_at) / Fold change /veh PODN (11730768_x_at) / RFU LINC00158 (11744669_a_at) / Fold change /veh LINC00158 (11744669_a_at) / RFU DUSP10 (11751237_a_at) / Fold change /veh DUSP10 (11751237_a_at) / RFU ID3 (11757404_x_at) / Fold change /veh ID3 (11757404_x_at) / RFU PLEKHG5 (11737974_s_at) / Fold change /veh PLEKHG5 (11737974_s_at) / RFU LRRC4B (11730491_at) / Fold change /veh LRRC4B (11730491_at) / RFU GIMAP4 (11747438_a_at) / Fold change /veh GIMAP4 (11747438_a_at) / RFU KRT8 (11758183_x_at) / Fold change /veh KRT8 (11758183_x_at) / RFU CNN1 (11734310_a_at) / Fold change /veh CNN1 (11734310_a_at) / RFU VPS37D (11726825_at) / Fold change /veh VPS37D (11726825_at) / RFU C10orf10 (11716522_x_at) / Fold change /veh C10orf10 (11716522_x_at) / RFU KIR2DL2 /// KIR2DL4 /// KIR2DL5A /// KIR2DL5B /// KIR2DS1 /// KIR2DS2 /// KIR2DS3 /// KIR2DS4 /// KIR3DL3 /// KIR3DL3 /// KIR3DS1 (11738374_at) / Fold change /veh KIR2DL2 /// KIR2DL4 /// KIR2DL5A /// KIR2DL5B /// KIR2DS1 /// KIR2DS2 /// KIR2DS3 /// KIR2DS4 /// KIR3DL3 /// KIR3DL3 /// KIR3DS1 (11738374_at) / RFU C1QL1 (11718748_at) / Fold change /veh C1QL1 (11718748_at) / RFU TMPRSS4 (11747572_a_at) / Fold change /veh TMPRSS4 (11747572_a_at) / RFU HAMP (11756126_x_at) / Fold change /veh HAMP (11756126_x_at) / RFU RNFT2 (11725882_a_at) / Fold change /veh RNFT2 (11725882_a_at) / RFU NR4A2 (11747474_a_at) / Fold change /veh NR4A2 (11747474_a_at) / RFU ABCC12 (11746883_a_at) / Fold change /veh ABCC12 (11746883_a_at) / RFU TMEM136 (11760407_x_at) / Fold change /veh TMEM136 (11760407_x_at) / RFU CLDN22 /// WWC2 (11732394_at) / Fold change /veh CLDN22 /// WWC2 (11732394_at) / RFU HLA-DPB1 (11760878_x_at) / Fold change /veh HLA-DPB1 (11760878_x_at) / RFU SPINT1 (11716480_a_at) / Fold change /veh SPINT1 (11716480_a_at) / RFU GAP43 (11754022_s_at) / Fold change /veh GAP43 (11754022_s_at) / RFU A4GNT (11735810_at) / Fold change /veh A4GNT (11735810_at) / RFU PRB3 (11715151_x_at) / Fold change /veh PRB3 (11715151_x_at) / RFU TUBB4B (11761932_at) / Fold change /veh TUBB4B (11761932_at) / RFU CAPN14 (11732068_a_at) / Fold change /veh CAPN14 (11732068_a_at) / RFU TMCC2 (11721928_a_at) / Fold change /veh TMCC2 (11721928_a_at) / RFU IRGQ (11745062_a_at) / Fold change /veh IRGQ (11745062_a_at) / RFU FAM174B (11720279_a_at) / Fold change /veh FAM174B (11720279_a_at) / RFU TMPRSS4 (11748680_a_at) / Fold change /veh TMPRSS4 (11748680_a_at) / RFU FAM212B (11763350_a_at) / Fold change /veh FAM212B (11763350_a_at) / RFU PLEKHG5 (11743358_a_at) / Fold change /veh PLEKHG5 (11743358_a_at) / RFU ZSCAN30 (11745921_a_at) / Fold change /veh ZSCAN30 (11745921_a_at) / RFU CMKLR1 (11741424_a_at) / Fold change /veh CMKLR1 (11741424_a_at) / RFU LOC101060620 /// MAPK8IP1 (11723275_at) / Fold change /veh LOC101060620 /// MAPK8IP1 (11723275_at) / RFU SPTSSB (11747773_x_at) / Fold change /veh SPTSSB (11747773_x_at) / RFU PRSS12 (11739890_at) / Fold change /veh PRSS12 (11739890_at) / RFU BIN1 (11741810_x_at) / Fold change /veh BIN1 (11741810_x_at) / RFU WNT11 (11732464_a_at) / Fold change /veh WNT11 (11732464_a_at) / RFU C10orf10 (11716521_a_at) / Fold change /veh C10orf10 (11716521_a_at) / RFU C5orf56 (11738089_at) / Fold change /veh C5orf56 (11738089_at) / RFU CYB561 (11721691_x_at) / Fold change /veh CYB561 (11721691_x_at) / RFU ANKRD19P (11752326_a_at) / Fold change /veh ANKRD19P (11752326_a_at) / RFU OR2T12 /// OR2T33 /// OR2T8 (11738714_s_at) / Fold change /veh OR2T12 /// OR2T33 /// OR2T8 (11738714_s_at) / RFU VCAN (11748164_a_at) / Fold change /veh VCAN (11748164_a_at) / RFU JSRP1 (11732532_at) / Fold change /veh JSRP1 (11732532_at) / RFU KRTAP10-11 (11738290_x_at) / Fold change /veh KRTAP10-11 (11738290_x_at) / RFU MYO3A (11730013_a_at) / Fold change /veh MYO3A (11730013_a_at) / RFU EBF3 (11725865_a_at) / Fold change /veh EBF3 (11725865_a_at) / RFU CAMK2N1 (11719241_x_at) / Fold change /veh CAMK2N1 (11719241_x_at) / RFU C5orf56 (11738088_a_at) / Fold change /veh C5orf56 (11738088_a_at) / RFU OLFML3 (11715873_a_at) / Fold change /veh OLFML3 (11715873_a_at) / RFU LOC100653217 /// NTM (11731650_a_at) / Fold change /veh LOC100653217 /// NTM (11731650_a_at) / RFU MAPK11 (11762145_a_at) / Fold change /veh MAPK11 (11762145_a_at) / RFU FIZ1 (11724087_x_at) / Fold change /veh FIZ1 (11724087_x_at) / RFU OASL (11726364_x_at) / Fold change /veh OASL (11726364_x_at) / RFU SOX15 (11748057_x_at) / Fold change /veh SOX15 (11748057_x_at) / RFU CD79A (11719716_a_at) / Fold change /veh CD79A (11719716_a_at) / RFU HIST1H1D (11736915_at) / Fold change /veh HIST1H1D (11736915_at) / RFU CASKIN2 (11723855_a_at) / Fold change /veh CASKIN2 (11723855_a_at) / RFU LOC730098 (11760151_x_at) / Fold change /veh LOC730098 (11760151_x_at) / RFU OR4N2 (11742367_at) / Fold change /veh OR4N2 (11742367_at) / RFU PRRT2 (11749266_a_at) / Fold change /veh PRRT2 (11749266_a_at) / RFU SNX32 (11753110_a_at) / Fold change /veh SNX32 (11753110_a_at) / RFU CDHR5 (11726645_a_at) / Fold change /veh CDHR5 (11726645_a_at) / RFU RCAN1 (11760418_a_at) / Fold change /veh RCAN1 (11760418_a_at) / RFU FAM167A (11723789_a_at) / Fold change /veh FAM167A (11723789_a_at) / RFU FAM26E (11764081_at) / Fold change /veh FAM26E (11764081_at) / RFU ISYNA1 (11749810_s_at) / Fold change /veh ISYNA1 (11749810_s_at) / RFU ACY1 (11761880_at) / Fold change /veh ACY1 (11761880_at) / RFU 11764098_at / Fold change /veh 11764098_at / RFU SAMD14 (11745864_x_at) / Fold change /veh SAMD14 (11745864_x_at) / RFU NPB (11741838_a_at) / Fold change /veh NPB (11741838_a_at) / RFU TMPRSS6 (11731388_a_at) / Fold change /veh TMPRSS6 (11731388_a_at) / RFU KRTAP10-2 (11738614_at) / Fold change /veh KRTAP10-2 (11738614_at) / RFU ARHGAP8 /// PRR5-ARHGAP8 (11727945_x_at) / Fold change /veh ARHGAP8 /// PRR5-ARHGAP8 (11727945_x_at) / RFU KRTAP5-7 /// NADSYN1 (11734609_at) / Fold change /veh KRTAP5-7 /// NADSYN1 (11734609_at) / RFU RASL12 (11751679_a_at) / Fold change /veh RASL12 (11751679_a_at) / RFU CDKN2B (11736163_a_at) / Fold change /veh CDKN2B (11736163_a_at) / RFU PRF1 (11729649_at) / Fold change /veh PRF1 (11729649_at) / RFU, ZNF638 /// ZNF638-IT1 / Fold change vs veh, ZNF638 /// ZNF638-IT1 / RFU, PANK3 / Fold change vs veh, PANK3 / RFU, SH3YL1 / Fold change vs veh, SH3YL1 / RFU, ZEB2 / Fold change vs veh, ZEB2 / RFU, NRIP1 / Fold change vs veh, NRIP1 / RFU, PTTG1IP / Fold change vs veh, PTTG1IP / RFU, CAPN2 / Fold change vs veh, CAPN2 / RFU, MED14 / Fold change vs veh, MED14 / RFU, SNORA58 / Fold change vs veh, SNORA58 / RFU, C1orf63 / Fold change vs veh, C1orf63 / RFU, LRRFIP1 / Fold change vs veh, LRRFIP1 / RFU, NDUFAF7 / Fold change vs veh, NDUFAF7 / RFU, SLC12A2 / Fold change vs veh, SLC12A2 / RFU, IBTK / Fold change vs veh, IBTK / RFU, ESF1 / Fold change vs veh, ESF1 / Fold change vs veh, TMEM50B / RFU, TAOK1 / Fold change vs veh, TAOK1 / RFU, ACBD3 / Fold change vs veh, ACBD3 / RFU, TMA16 / Fold change vs veh, TMA16 / RFU, RWDD3 / Fold change vs veh, RWDD3 / RFU, BCAT1 / Fold change vs veh, BCAT1 / RFU, EDEM3 / Fold change vs veh, EDEM3 / RFU, TMEM33 / Fold change vs veh, TMEM33 / RFU, WDR75 / Fold change vs veh, WDR75 / RFU, AHCTF1 / Fold change vs veh, AHCTF1 / RFU, TFRC / Fold change vs veh, TFRC / RFU, ZDHHC17 / Fold change vs veh, ZDHHC17 / RFU, NOM1 / Fold change vs veh, NOM1 / RFU, ARL8B / Fold change vs veh, ARL8B / RFU, ZBTB11 / Fold change vs veh, ZBTB11 / RFU, TAMM41 / Fold change vs veh, TAMM41 / RFU, KIAA1704 /// LOC100996395 / Fold change vs veh, KIAA1704 /// LOC100996395 / RFU, ING1 / Fold change vs veh, ING1 / RFU, TRMT61B / Fold change vs veh, TRMT61B / RFU, FUBP3 / Fold change vs veh, FUBP3 / RFU, TP53 / Fold change vs veh, TP53 / RFU, TNKS2 / Fold change vs veh, TNKS2 / RFU, ZFP14 / Fold change vs veh, ZFP14 / RFU, ACTR2 / Fold change vs veh, ACTR2 / RFU, PPP3R1 / Fold change vs veh, PPP3R1 / RFU, PIK3R1 / Fold change vs veh, PIK3R1 / RFU, HNRNPA1 / Fold change vs veh, HNRNPA1 / RFU, RNF170 / Fold change vs veh, RNF170 / RFU, ZNF28 / Fold change vs veh, ZNF28 / RFU, RNGTT / Fold change vs veh, RNGTT / RFU, OGT / Fold change vs veh, OGT / RFU, BRD1 / Fold change vs veh, BRD1 / RFU, MARS / Fold change vs veh, MARS / RFU, ZNF655 / Fold change vs veh, ZNF655 / RFU, FAHD1 / Fold change vs veh, FAHD1 / RFU, BDP1 / Fold change vs veh, BDP1 / RFU, LRRCC1 / Fold change vs veh, LRRCC1 / RFU, ARID1A / Fold change vs veh, ARID1A / RFU, ZNF146 / Fold change vs veh, ZNF146 / RFU, ZNF330 / Fold change vs veh, ZNF330 / RFU, GPN3 / Fold change vs veh, GPN3 / RFU, C9orf123 / Fold change vs veh, C9orf123 / RFU, N4BP2L2 / Fold change vs veh, N4BP2L2 / RFU, ARFIP1 / Fold change vs veh, ARFIP1 / RFU, FAM179B / Fold change vs veh, FAM179B / RFU, BCL10 / Fold change vs veh, BCL10 / RFU, UHRF1BP1L / Fold change vs veh, UHRF1BP1L / RFU, BET1 / Fold change vs veh, BET1 / RFU, CNOT2 / Fold change vs veh, CNOT2 / RFU, ZNF268 / Fold change vs veh, ZNF268 / Fold change vs veh, ZNF507 / RFU, DGCR2 / Fold change vs veh, DGCR2 / RFU, WDSUB1 / Fold change vs veh, WDSUB1 / Fold change vs veh, HSP90B1 /// MIR3652 / RFU, ADSS / Fold change vs veh, ADSS / RFU, GK / Fold change vs veh, GK / RFU, ZNF148 / Fold change vs veh, ZNF148 / RFU, TAF9 / Fold change vs veh, TAF9 / RFU, SLC1A5 / Fold change vs veh, SLC1A5 / RFU, SLMO2 / Fold change vs veh, SLMO2 / RFU, ABCC4 / Fold change vs veh, ABCC4 / RFU, LOC101060439 /// RAP1B / Fold change vs veh, LOC101060439 /// RAP1B / RFU, RFX7 / Fold change vs veh, RFX7 / RFU, GTPBP10 / Fold change vs veh, GTPBP10 / RFU, CNEP1R1 / Fold change vs veh, CNEP1R1 / RFU, BIVM-ERCC5 /// ERCC5 / Fold change vs veh, BIVM-ERCC5 /// ERCC5 / RFU, ILF3 / Fold change vs veh, ILF3 / RFU 11762660_at / Fold change /veh 11762660_at / RFU VCAN (11757783_s_at) / Fold change /veh VCAN (11757783_s_at) / RFU DDX43 (11728927_at) / Fold change /veh DDX43 (11728927_at) / RFU KRT8 (11758188_x_at) / Fold change /veh KRT8 (11758188_x_at) / RFU NKD1 (11759106_at) / Fold change /veh NKD1 (11759106_at) / RFU SRD5A1 (11742802_a_at) / Fold change /veh SRD5A1 (11742802_a_at) / RFU TPSAB1 /// TPSB2 (11721975_s_at) / Fold change /veh TPSAB1 /// TPSB2 (11721975_s_at) / RFU GSTM3 (11746129_a_at) / Fold change /veh GSTM3 (11746129_a_at) / RFU IL23R (11737362_x_at) / Fold change /veh IL23R (11737362_x_at) / RFU TMEM51 (11727254_a_at) / Fold change /veh TMEM51 (11727254_a_at) / RFU PIWIL2 (11732686_x_at) / Fold change /veh PIWIL2 (11732686_x_at) / RFU ORM1 (11744905_x_at) / Fold change /veh ORM1 (11744905_x_at) / RFU CCDC152 (11743942_at) / Fold change /veh CCDC152 (11743942_at) / RFU ECM1 (11717891_a_at) / Fold change /veh ECM1 (11717891_a_at) / RFU IL23R (11748794_a_at) / Fold change /veh IL23R (11748794_a_at) / RFU TNFAIP8L3 (11732012_x_at) / Fold change /veh TNFAIP8L3 (11732012_x_at) / RFU MBOAT4 (11741988_at) / Fold change /veh MBOAT4 (11741988_at) / RFU 11764193_at / Fold change /veh 11764193_at / RFU TMEM53 (11763286_at) / Fold change /veh TMEM53 (11763286_at) / RFU MAGEB2 (11727129_at) / Fold change /veh MAGEB2 (11727129_at) / RFU TMEM200A (11744735_a_at) / Fold change /veh TMEM200A (11744735_a_at) / RFU CCDC152 (11751479_a_at) / Fold change /veh CCDC152 (11751479_a_at) / RFU FAM211A (11726209_a_at) / Fold change /veh FAM211A (11726209_a_at) / RFU RGS16 (11746705_a_at) / Fold change /veh RGS16 (11746705_a_at) / RFU VCAN (11755009_s_at) / Fold change /veh VCAN (11755009_s_at) / RFU RHOB (11743442_s_at) / Fold change /veh RHOB (11743442_s_at) / RFU RGS16 (11720943_a_at) / Fold change /veh RGS16 (11720943_a_at) / RFU RGS16 (11720944_at) / Fold change /veh RGS16 (11720944_at) / RFU, VPS4B / Fold change vs veh, VPS4B / RFU, CREB1 / Fold change vs veh, CREB1 / RFU, DNAJC13 / Fold change vs veh, DNAJC13 / RFU, GNAQ / Fold change vs veh, GNAQ / RFU, CDK5R1 / Fold change vs veh, CDK5R1 / RFU, ZRANB3 / Fold change vs veh, ZRANB3 / RFU, CUL4A / Fold change vs veh, CUL4A / RFU, CCNY / Fold change vs veh, CCNY / RFU, UFL1 / Fold change vs veh, UFL1 / RFU, COG3 / Fold change vs veh, COG3 / RFU, DIAPH2 / Fold change vs veh, DIAPH2 / RFU, SKA2 / Fold change vs veh, SKA2 / RFU, AFF3 / Fold change vs veh, AFF3 / RFU, LMF1 / Fold change vs veh, LMF1 / RFU, IPO11 / Fold change vs veh, IPO11 / RFU, DFFB / Fold change vs veh, DFFB / RFU, FOXP1 / Fold change vs veh, FOXP1 / RFU, CARD8 / Fold change vs veh, CARD8 / RFU, STRN3 / Fold change vs veh, STRN3 / RFU, ADK / Fold change vs veh, ADK / RFU, RASSF2 / Fold change vs veh, RASSF2 / RFU, WIPF1 / Fold change vs veh, WIPF1 / RFU, LARP1B / Fold change vs veh, LARP1B / RFU, RASA1 / Fold change vs veh, RASA1 / RFU, RB1 / Fold change vs veh, RB1 / RFU, PPFIA1 / Fold change vs veh, PPFIA1 / RFU, MAT2A / Fold change vs veh, MAT2A / RFU, CCT5 / Fold change vs veh, CCT5 / RFU, WDR92 / Fold change vs veh, WDR92 / RFU, CUX1 / Fold change vs veh, CUX1 / RFU, TTC7A / Fold change vs veh, TTC7A / RFU, TMEM135 / Fold change vs veh, TMEM135 / RFU, DEPTOR / Fold change vs veh, DEPTOR / RFU, CPM / Fold change vs veh, CPM / RFU, DNAJB6 / Fold change vs veh, DNAJB6 / RFU, CACNA2D3 / Fold change vs veh, CACNA2D3 / RFU, DTX4 / Fold change vs veh, DTX4 / RFU, TFCP2 / Fold change vs veh, TFCP2 / RFU, GMCL1 /// GMCL1P1 / Fold change vs veh, GMCL1 /// GMCL1P1 / RFU, AEBP2 / Fold change vs veh, AEBP2 / RFU, SNHG1 /// SNORD22 /// SNORD25 /// SNORD26 /// SNORD27 /// SNORD28 /// SNORD29 /// SNORD31 / Fold change vs veh, SNHG1 /// SNORD22 /// SNORD25 /// SNORD26 /// SNORD27 /// SNORD28 /// SNORD29 /// SNORD31 / Fold change (Aza/veh), C12orf56 (ProbeSet 11735607_a_at) / Fold change (ACY-1035/veh), C12orf56 (ProbeSet 11735607_a_at) / Fold change (Aza/veh), FGFR1OP (ProbeSet 11751329_s_at) / Fold change (ACY-1035/veh), FGFR1OP (ProbeSet 11751329_s_at) / Fold change (Aza/veh), VPS36 (ProbeSet 11739960_a_at) / Fold change (ACY-1035/veh), VPS36 (ProbeSet 11739960_a_at) / RFU SYPL1 (11715823_x_at) / Fold change /veh SYPL1 (11715823_x_at) / RFU IGFBP7 (11715501_s_at) / Fold change /veh IGFBP7 (11715501_s_at) / RFU REEP3 (11722064_at) / Fold change /veh REEP3 (11722064_at) / RFU IGLL1 (11728026_x_at) / Fold change /veh IGLL1 (11728026_x_at): dose or concentration left out as unconfirmed
Conditions: ProbeSet 11758440_s_at; LIST B

In the case of `Nc1ccc(-c2cccs2)cc1NC(=O)c1ccc2c(c1)cc(C1CC1)n2CCN1CCOCC1` [ACY-1035], the “Fold change vs veh, RFX7” value is reported as 0.90.
